Results reported in ChEMBL document CHEMBL3046593, “Studies on the synthesis of some new substituted benzylamino and phenyl-acrylamido-methyl flavone derivatives” (2007).
Calls of active or inactive are those of the source. The calls are words filed in the database; no cut-off is given here.

Tests used:
Assay type in all cases: functional
Conditions in all cases: for zone of inhibition at 3000 µg/mL: read-out: DIZ
Escherichia coli = test: Antibacterial activity against Escherichia coli RSKK 313 at 3000 ug/ml after 18 to 24 hr by disk diffusion method
Staphylococcus aureus = test: Antibacterial activity against Staphylococcus aureus ATCC 250 at 3000 ug/ml after 18 to 24 hr by disk diffusion method
Candida albicans = test: Antifungal activity against Candida albicans RSKK 628 at 3000 ug/ml after 18 to 24 hr by disk diffusion method

SMILES	diameter of the inhibition zone (DIZ) (Escherichia coli)	zone of inhibition at 3000 µg/mL (Staphylococcus aureus)	diameter of the inhibition zone (DIZ) (Candida albicans)	zone of inhibition at 3000 µg/mL (Escherichia coli)	zone of inhibition at 3000 µg/mL (Candida albicans)	diameter of the inhibition zone (DIZ) (Staphylococcus aureus)
O=C(/C=C/c1ccccc1)N(Cc1ccccc1)Cc1cccc(-c2cc(=O)c3ccccc3o2)c1	inactive	10 mm	inactive			
O=c1cc(-c2cccc(CNCc3ccc(Cl)c(Cl)c3)c2)oc2ccccc12		16 mm		12 mm	10 mm	
O=c1cc(-c2cccc(CNCc3ccc(Cl)cc3Cl)c2)oc2ccccc12	inactive	10 mm	inactive			
O=C(/C=C/c1ccccc1)N(Cc1ccc(F)cc1)Cc1cccc(-c2cc(=O)c3ccccc3o2)c1	inactive		inactive			inactive
Clc1ccc(COC(Cn2ccnc2)c2ccc(Cl)cc2Cl)c(Cl)c1 (stereo not drawn) [MICONAZOLE]					35 mm	
O=c1cc(-c2cccc(CNCc3ccc(F)cc3)c2)oc2ccccc12	inactive	15 mm			20 mm	
CC1(C)S[C@@H]2[C@H](NC(=O)[C@H](N)c3ccccc3)C(=O)N2[C@H]1C(=O)O [AMPICILLIN]		30 mm		20 mm		
O=c1cc(-c2cccc(CNCc3ccc(Cl)cc3)c2)oc2ccccc12	inactive	25 mm			15 mm	
O=C(/C=C/c1ccccc1)N(Cc1ccc(Cl)cc1)Cc1cccc(-c2cc(=O)c3ccccc3o2)c1				12 mm	13 mm	inactive
O=C(/C=C/c1ccccc1)N(Cc1cccc(-c2cc(=O)c3ccccc3o2)c1)Cc1ccc(Cl)cc1Cl	inactive				15 mm	inactive
O=C(/C=C/c1ccccc1)N(Cc1cccc(-c2cc(=O)c3ccccc3o2)c1)Cc1ccc(Cl)c(Cl)c1	inactive				15 mm	inactive
O=c1cc(-c2cccc(CNCc3ccccc3)c2)oc2ccccc12		16 mm		10 mm	25 mm	
